Results: patent US20100028366A1, “SYNERGISTIC EFFECT BETWEEN A […] AND ANOTHER OXIDATIVE INDUCING SYSTEM FOR TREATING TUMORS” (priority 2005, published 2010)
Peptide text beside a SMILES is read from it. * marks the point of attachment. Cbz = O=C(OCc1ccccc1)*; CH2F = FC*

Tests used:
Format in all cases: cell-based, canine
W&Wlis cells [1] = experiment: Analysis of the type of death by flow cytometry (annexin V-FITC/propidium iodide); design: Necrosis / Apoptosis: unit not given here
Method: The annexin V-FITC and propidium iodide assay was performed in parallel by flow cytometry. The pattern of death of the system was analyzed when adding 5 mEU/ml of glucose oxidase and the combined therapy (5 mEU/ml of GO and 500 μg/ml of linamarin) at 48 hours, followed by the control of untreated cells and of the cells incubated with 500 μg/ml of linamarin at 96 hours. Furthermore, another group of cells was subjected to the same conditions except 10 mM of N-acetyl cysteine (NAC) were added. The cells treated with the combined therapy were subsequently studied at 48 hours in the absence and presence of 100 μM of Z-VAD-fmk, followed by the control of treatment of the cells with UV in the same conditions. Finally, the cells treated with the combined therapy were shown at 48 hours in the absence and presence of 300 μM of 1,5-isoquinolinediol (DIQ), observing that the pattern of death is not modified when PARP-1 is inhibited (FIG. 4).
10^5 W&Wlis cells were seeded in test tubes with a screw-on cap and flat side (Nunc). After 24 hours, different amounts of linamarin (50, 200 or 500 μg/ml) and glucose oxidase (5 mEU/ml) were added in the specified cases. In the appropriate assays, the medium was supplemented with N-acetyl cysteine (10 mM), 1,5-isoquinolinediol (300 μM) or Z-VAD-fmk (100 μM). […] They were centrifuged for 5 minutes at 1200 rpm and the cell precipitate was washed first with PBS and then with binding buffer (0.1 M Hepes/NaOH pH 7.4, 1.4 M NaCl and 25 mM CaCl2). The cells were again precipitated and resuspended in 100 μl of binding buffer supplemented with 5 μl of annexin V-FITC and 2.5 μg/ml of propidium iodide. The samples were incubated for 15 minutes in the dark. Data acquisition and analysis was carried out by means of a FACSCalibur flow cytometer (DB Biosciences) with the Cell Quest program.

W&Wlis cells [2] = experiment: as above; design: unit not given here; conditions: Table 5; Control cells; DIQ (300 μM); 32 hours
W&Wlis cells [3] = experiment: DNA content analysis by flow cytometry, labeling with propidium iodide; design: unit not given here; conditions: UV (24 hours), 12.5 J/m^2; Z-VAD-fmk 100 μM; UV Control = 66.14
[4] = Table 5, Control cells, DIQ (300 μM), 48 hours
[5] = 0 μg lin, Without GO, 96 hours, NAC (10 mM)
[6] = Table 4, 0 μg lin, Without GO, 72 hours, Z-VAD-fmk (100 μM)

Oc1cccc2c(O)nccc12 [DIQ, 1,5-isoquinolinediol, reference compound]
Apoptosis (W&Wlis cells [1]; Table 5, Control cells, DIQ (300 μM), 32 hours): 8.15 | Apoptosis (W&Wlis cells [1]; [4]): 20.16 | Necrosis (W&Wlis cells [1]; [4]): 29.59 | Necrosis (W&Wlis cells [2]): 17.62

CC(=O)N[C@@H](CS)C(=O)O [NAC, N-acetyl cysteine, reference compound]
Apoptosis (W&Wlis cells [1]; [5]): 16.17 | Necrosis (W&Wlis cells [1]; [5]): 13.46

COC(=O)C[C@H](NC(=O)[C@H](C)NC(=O)[C@@H](NC(=O)OCc1ccccc1)C(C)C)C(=O)CF [Z-VAD-fmk, reference compound] (Cbz-Val-Ala-Asp(OMe)-CH2F)
DNA content by flow cytometry, labeling with propidium iodide (W&Wlis cells [3]): Z-VAD-fmk = 2.71 | Apoptosis (W&Wlis cells [1]; [6]): 2.66 | Necrosis (W&Wlis cells [1]; [6]): 37.25 | inhibition of UV radiation-induced apoptosis (W&Wlis cells [1]; Z-VAD-fmk (100 μM), UV 12.5 J/m^2, DNA content and annexin V-FITC/propidium iodide): complete inhibition
